From ChEMBL document CHEMBL1126530, “A concise enantioselective synthesis of rans-olefin dipeptide isosteres” (Bioorg Med Chem Lett, 1993)

The compounds below were run against Human immunodeficiency virus type 1 protease (Human immunodeficiency virus 1, UniProt Q72874) (assay: Inhibitory constant against HIV-1 protease).
In the case of `COC(=O)[C@@H](NC(=O)[C@@H](C)/C=C/[C@@H](Cc1ccccc1)C(=O)N[C@H](C(=O)OC)C(C)C)C(C)C`, the Ki is reported as > 67 µM. For `COC(=O)[C@@H](NC(=O)[C@@H](/C=C/[C@@H](C(=O)N[C@H](C(=O)OC)C(C)C)C(C)C)Cc1ccccc1)C(C)C`, the Ki was 5 µM. In the case of `COC(=O)[C@@H](NC(=O)[C@@H](/C=C/[C@H](C)C(=O)N[C@H](C(=O)OC)C(C)C)C(C)C)C(C)C`, the Ki is reported as > 67 µM.
